Data: patent US20140162879A1, “SYNERGISTIC WEED CONTROL FROM APPLICATIONS OF AMINOCYCLOPYRACHLOR AND 2,4 DICHLOROPHENOXYACETIC ACID (2,4-D)” (Dow AgroSciences LLC, priority 2012, published 2014)
Structures can show the parent of a compound that is named as a salt.

What was measured:
[1] = test system: Senna obtusifolia (CASOB, java bean); experiment: Field trial, post-emergence foliar application, weed control rating; type: in vivo
Procedure: (§1) As described in the Herbicide Handbook of the Weed Science Society of America, Ninth Edition, 2007, p. […] In some embodiments, the damage or injury to the undesired vegetation caused by the compositions and methods disclosed herein is evaluated using a scale from 0% to 100%, when compared with the untreated control vegetation, wherein 0% indicates no damage to the undesired vegetation and 100% indicates complete destruction of the undesired vegetation. […] 22 (1967)
(§2) Field trials were conducted with applications made to established grassland with naturally occurring weed populations. The target plants were treated with postemergence foliar applications when they were at the beginning of flowering stage and 50 centimeters (cm) (19.7 inches (in)) tall for Senna obtusifolia plants and at the flowering stage and 70-90 cm (27.6-35.4 in) for Melochia parviflora plants. All treatments were applied using a randomized complete block trial design, with 4 replications per treatment.
(§3) Treatments consisted of aminocyclopyrachlor in acid form and the dimethylamine salt of 2,4-D, each in water and applied alone or in combination. Spray solutions were prepared using an appropriate amount of dilution to form a 2.4 liter (L) aqueous spray solution with active ingredients in single and two way combinations. Formulated compounds were applied to the plant material with a backpack sprayer equipped with 8003 nozzles calibrated to deliver 42.8 gallons per acre (gal/acre) (400 liters per hectare (L/ha)) at a spray height of 18-20 inches (45-51 centimeters (cm)) above average plant canopy.
(§4) The treated plants were Senna obtusifolia (CASOB, java bean), or Melochia parviflora (MEOPA). The treated plots and control plots were rated blind at various intervals after application. Ratings were based on a scale of 0-100%, as discussed above, wherein 0% indicates no damage to the undesired vegetation and 100% indicates complete destruction of the undesired vegetation
(§5) Colby's equation was used to determine the herbicidal effects expected from the mixtures, as described above. The results were measured at 42 days or 58-62 days after the first application of the compositions. […] The herbicide tank mix combinations tested, application rates and ratios employed, plant species tested, and results are given below.

[2] = test system: Melochia parviflora (MEOPA); experiment: as above; type: in vivo; settings: 58-62 days
Procedure: as §1, §2, §3, §4, §5

Structure (SMILES): O=C(O)COc1ccc(Cl)cc1Cl [Dimethylamine salt of 2,4-D, 2,4-dichlorophenoxyacetic acid]
- Mean % weed control ([1]; dimethylamine salt of 2,4-D alone 1120 g ae/ha, 42 days): 64.3%
- Mean % weed control ([2]; dimethylamine salt of 2,4-D alone 1120 g ae/ha): 24.4%

Structure (SMILES): Nc1nc(C2CC2)nc(C(=O)O)c1Cl [Aminocyclopyrachlor, 6-amino-5-chloro-2-cyclopropylpyrimidine-4-carboxylic acid]
- Mean % weed control ([1]; aminocyclopyrachlor alone 35 g ae/ha, 42 days after application): 72.0%
- Mean % weed control ([2]; aminocyclopyrachlor alone 35 g ae/ha): 6.8%
- Mean % weed control ([2]; aminocyclopyrachlor alone 70 g ae/ha): 10.0%
- Mean % weed control ([2]; aminocyclopyrachlor alone 140 g ae/ha): 52.1%
- Mean % weed control ([2]; aminocyclopyrachlor alone 210 g ae/ha): 81.8%
